Laboratory results as given in US6528251B2, “Method of managing the chemotherapy of patients who are HIV positive based on the phenotypic drug sensitivity of human HIV strains” (Virco N.V., priority 1996, dated 2003).
Where two headings read alike, the source gives them in different places.

How the values were obtained:
Assay type in all cases: cell-based, HIV-1
[1] = tested on: recombinant virus from patient viral RNA (Example 10, drug-naive patient); assay: Recombinant virus assay (MT4/MTT), drug-naive patient of Example 10; details: for IC50: Human immunodeficiency virus 1, Table 6, Example 10 patient virus; for ratio (1)/(2): Table 6, patient mean IC50 / recIIIB IC50, Example 10
Method: (§1) RNA was isolated from 100 μl of plasma according to the method described by Boom, R. et al. (1990, supra), and was reverse transcribed with the GeneAmp reverse transcriptase kit (Perkin Elmer) as described by the manufacturer and using an HIV-1 specific downstream primer (OUT3: 5′-CATTGCTCTCCAATTACTGTGATATTTCTCATC-3′; SEQ ID NO: 1). PCR on reverse transcribed RNA was performed with inner and outer primers as described by Kellam, P. and Larder, B. A. (1994, supra). After chloroform extraction and centrifugation on Centricon 100 columns or centrifugation on anion-exchange spin columns (Quiagen), the isolated PCR product was ready for use in the transfection reactions.
(§2) MT4 cells were subcultured at a density of 250,000 cells/ml before transfection (exponential growth phase). Cells were pelleted and resuspended in phosphate buffered saline (PBS) at a concentration of […]. A 0.8 ml portion (2.5 10E6 cells/ml) was used for each transfection. Transfection was performed with the Bio-Rad Gene pulser making use of 0.4 cm electrode cuvettes. Cells were electroporated in the presence of […] of linearised pHIVΔRT plasmid and approximately 5 μg of RT PCR product at 250SF and 300 V, followed by a 30-min incubation at room temperature. Subsequently, 10 ml of fresh culture medium was added to the cell suspension and incubation was performed at 37° C. in a humidified atmosphere of 5% CO2.
(§3) During 7 to 10 days following the transfection, cells were monitored for the appearance of cytopathogenic effect (CPE). In the absence thereof, cells were subcultured in different flasks. Subsequently, culture supernatants of transfected cells were used to create a stock of recombinant virus and stored in 1.5 ml aliquots at −70° C.
(§4) After titration of the new viruses, the stocks were used for antiviral experiments in the presence of serial dilutions of different HIV inhibitors. Titres of the harvested supematants were determined by limited serial dilution titration of virus in MT4 cells.
(§5) Viruses with a useful titre were used in antiviral experiments. For this purpose, 96-well microtitre plates were filled with 100μl of complete culture medium. Subsequently, stock solutions of compounds were added in 25 μl volumes to series of duplicate wells. HIV- and mock-infected cell samples were included for each drug (or drug combination). Exponentially growing MT4 cells were then transferred to the microtitre plates at a density of 150,000 cells/ml. The cell cultures were then incubated at 37° C. in a humidified atmosphere of 5% CO2. Five days after infection, the viability of the mock- and HIV-infected cells was examined spectrophotometrically by the M1T method (Pauwels, R. et al. J. Virol. Meth. (1988), 20: 309-321) as described in Section 6 below.
(§6) To each well of the microtiter plates, 20 μl of a solution of MTT (7.5 mg/ml in PBS) was added. The plates were further incubated at 37° C. for 1 h. Then, 150 μl of medium was removed without disturbing the MT4 cell clusters containing the formazan crystals. Solubilization of the formazan crystals was achieved by adding 100 μl 5% Triton X-100 in acidified isopropanol (5 ml concentrated HCl per liter solvent). Complete dissolution of the formazan crystals was obtained after the plates had been placed on a plate shaker for 10 min. Finally the absorbances were read at two wavelengths (540 and 690 nm). From these optical density (OD) data, 50% inhibitory (IC50) and 50% cytotoxic (CC50) concentrations were derived.
A drug-naive HIV-infected patient donated plasma whose susceptibility to a number of RT inhibitors and protease inhibitors was determined according to the protocol set out in Example 1. Recombinant wild type HIV strain recIIIB was used as a reference HIV virus.

[2] = tested on: recombinant virus from patient viral RNA (Example 12); assay: Recombinant virus assay (MT4/MTT), patient of Example 12 (therapy history RT and protease inhibitors); details: for ratio (1)/(2): Table 8, patient mean IC50 / recIIIB IC50, Example 12
Method: as §1, §2, §3, §4, §5, §6
(§7) An HIV infected patient with a therapy history including RT and protease inhibitors donated plasma whose susceptibility to a number of RT inhibitors and protease inhibitors was determined according to the protocol set out in Example 1.

[3] = tested on: recombinant virus from patient viral RNA (Example 11); assay: Recombinant virus assay (MT4/MTT), patient of Example 11 (therapy history RT and protease inhibitors); details: for ratio (1)/(2): Table 7, patient mean IC50 / recIIIB IC50, Example 11
Method: as §1, §2, §3, §4, §5, §6
as §7, with “1. Recombinant wild type HIV strain recIIIb was used as a reference HIV virus.” for “1.”

[4] = tested on: recombinant virus from plasma of HIV-infected individuals on NNRTI long-term monotherapy; assay: Phenotyping of patients on NNRTI long-term monotherapy (Example 13), fold resistance
Method: as §4, §5, §6
Plasma samples were obtained from HIV-infected individuals who had been receiving non-nucleoside RT inhibitor (NNRTI) long-term monotherapy. HIV-RNA was extracted, reverse-transcribed and amplified as described in Example 1. Starting from outer PCR material of positive samples, the first 785 nucleotides of the RT gene were amplified and this material was further used for genotyping.
Amino acids changes at these positions are shown for each patient in the following rows. […] The right part of Table 9 presents the fold resistance to different RT inhibitors as determined by the method according to the invention for each of the patients' samples. NNRTI 1 is the non-nucleoside RT inhibitor that was administered to the patients.

[5] = MT4 cells, read-out: Anti-HIV-1 activity IC50 (μM) Exp. 1
[6] = MT4 cells, read-out: Anti-HIV-1 activity IC50 (μM) Exp. 2
[7] = mean, read-out: Anti-HIV-1 activity IC50 (μM) Mean (1)
[8] = Human immunodeficiency virus 1, MT4, read-out: Anti-HIV-1 activity IC50 (μM) Exp. 1
[9] = Human immunodeficiency virus 1, MT4, read-out: Anti-HIV-1 activity IC50 (μM) Exp. 2
[10] = Human immunodeficiency virus 1, read-out: Anti-HIV-1 activity IC50 (μM) Mean (1)
[11] = Patient 4, no resistance associated mutation
[12] = Patient 5, no resistance associated mutation
[13] = Patient 11, RT mutations M41L, D67N, K70R, K103N, M184V, T215F, K219Q
[14] = Patient 12, RT mutations M41L, T215Y
[15] = Patient 13, RT mutations K101E, K103K/N, E138A, G190G/A
[16] = Patient 16, RT mutations K103N, M184V

SMILES | IC50 [1, 5] | IC50 [1, 6] | IC50 [1, 7] | ratio (1)/(2) [1] | ratio (1)/(2) [2] | ratio (1)/(2) [3] | FOLD RESISTANCE TO ([4]; Patient 1, RT mutation K103N) | FOLD RESISTANCE TO ([4]; Patient 2, RT mutation K103S) | FOLD RESISTANCE TO ([4]; Patient 3, RT mutation K103N) | FOLD RESISTANCE TO [4, 11] | FOLD RESISTANCE TO [4, 12] | FOLD RESISTANCE TO ([4]; Patient 6, RT mutation K103N) | FOLD RESISTANCE TO ([4]; Patient 7, RT mutation K103S) | FOLD RESISTANCE TO ([4]; Patient 8, RT mutation K103N) | FOLD RESISTANCE TO ([4]; Patient 9, RT mutation Y181C) | FOLD RESISTANCE TO ([4]; Patient 10, RT mutation K103N) | FOLD RESISTANCE TO [4, 13] | FOLD RESISTANCE TO [4, 14] | FOLD RESISTANCE TO [4, 15] | FOLD RESISTANCE TO ([4]; Patient 14, RT mutation K103N) | further results
Nc1ccn([C@@H]2CS[C@H](CO)O2)c(=O)n1 [3TC, lamivudine] | 1.53 µM | 1.72 µM | 1.62 µM | 0.4 | 22 | 19 | 1 fold | 0.4 fold | 1 fold | 0.1 fold | 0.4 fold | 0.3 fold | 0.04 fold | 1 fold | 1 fold | 0.1 fold | >8 fold | 2 fold | 1 fold | 1 fold | IC50 [2, 8]: > 100 µM; IC50 [2, 9]: > 100 µM; IC50 [2, 10]: > 100 µM; IC50 [3, 8]: > 100 µM; IC50 [3, 9]: 94 µM; IC50 [3, 10]: ≥ 97 µM; FOLD RESISTANCE TO ([4]; Patient 15, RT mutation K103N): 1 fold; FOLD RESISTANCE TO [4, 16]: >8 fold; FOLD RESISTANCE TO ([4]; Patient 17, RT mutation K103N): 1 fold; FOLD RESISTANCE TO ([4]; Patient 18, RT mutation K103S): 1 fold; FOLD RESISTANCE TO ([4]; Patient 19, RT mutation K103N): 1 fold; FOLD RESISTANCE TO ([4]; Patient 20, RT mutation A98G): 1 fold; FOLD RESISTANCE TO ([4]; Patient 21, RT mutation K103N): 0.4 fold; FOLD RESISTANCE TO ([4]; Patient 22, RT mutation V108I): 0.4 fold; FOLD RESISTANCE TO ([4]; Patient 23, RT mutation K103N): 0.2 fold; FOLD RESISTANCE TO ([4]; Patient 24, RT mutation K101Q): 1 fold
Cc1cn([C@H]2C[C@H](N=[N+]=[N-])[C@@H](CO)O2)c(=O)[nH]c1=O [AZT, zidovudine] | 0.019 µM | 0.019 µM | 0.019 µM | 0.5 | 88 | 0.3 | 1 fold | 1 fold | 0.4 fold | 0.3 fold | 1 fold | 1 fold | 1 fold | 1 fold | 2 fold | 0.4 fold | 94 fold | 28 fold | 1 fold | 1 fold | susceptibility of the patient's HIV strain (in words) ([2]; Example 12 patient, conclusion from Table 8): decreased susceptibility; IC50 ([2]; Human immunodeficiency virus 1, Table 8, Example 12 patient virus, MT4 cells, read-out: Anti-HIV-1 activity IC50 (μM) Exp. 1): 3.83 µM; IC50 ([2]; Human immunodeficiency virus 1, Table 8, Example 12 patient virus, MT4 cells, read-out: Anti-HIV-1 activity IC50 (μM) Exp. 2): 3.35 µM; IC50 ([2]; Human immunodeficiency virus 1, Table 8, Example 12 patient virus, mean, read-out: Anti-HIV-1 activity IC50 (μM) Mean (1)): 3.59 µM; IC50 ([3]; Human immunodeficiency virus 1, Table 7, Example 11 patient virus, MT4 cells, read-out: Anti-HIV-1 activity IC50 (μM) Exp. 2): 0.015 µM; IC50 ([3]; Human immunodeficiency virus 1, Table 7, Example 11 patient virus, mean, read-out: Anti-HIV-1 activity IC50 (μM) Mean (1)): 0.015 µM; FOLD RESISTANCE TO ([4]; Patient 15, RT mutation K103N): 2 fold; FOLD RESISTANCE TO [4, 16]: 1 fold; FOLD RESISTANCE TO ([4]; Patient 17, RT mutation K103N): 1 fold; FOLD RESISTANCE TO ([4]; Patient 18, RT mutation K103S): 1 fold; FOLD RESISTANCE TO ([4]; Patient 19, RT mutation K103N): 1 fold; FOLD RESISTANCE TO ([4]; Patient 20, RT mutation A98G): 0.4 fold; FOLD RESISTANCE TO ([4]; Patient 21, RT mutation K103N): 1 fold; FOLD RESISTANCE TO ([4]; Patient 22, RT mutation V108I): 1 fold; FOLD RESISTANCE TO ([4]; Patient 23, RT mutation K103N): 0.2 fold; FOLD RESISTANCE TO ([4]; Patient 24, RT mutation K101Q): 1 fold
